This is an account of results in US20140275224A1, “CYTOSINE DEAMINASE MODULATORS FOR ENHANCEMENT OF DNA TRANSFECTION” (Regents of the University of Minnesota, priority 2010, published 2014).

The structures appear in SMILES notation.

Assay [1] deals with E. Coli uracil-DNA glycosylase (Escherichia coli, UniProt P12295). Put plainly: control assay with UDG (U-containing oligos, without A3s). As to conditions: specificity control, FIG. 2C. In kind it is biochemical. From the text: All newly synthesized compounds can be tested in dose response experiments against recombinant A3A and A3G to identify the sub-library_compounds that have dual-inhibitory activity like the parental molecules.
These initial experiments can also identify the subset with improved IC50 values. Second, all confirmed inhibitors can be tested against the other five recombinant human A3 proteins (A3BCDEFH) to identify broader-spectrum inhibitors. Third, reactions can be performed with U-containing oligos and UDG (i.e., without A3s) to re-confirm that all new inhibitors have not become general enzyme inhibitors. These assays can be carried out in 96 or 384 well plate formats. HEK-293T cells were transfected with an A3A expression plasmid, and total cell extracts were used in DNA deaminase assays. Non-transfected or A3A-E72A catalytic mutant transfected cell extracts show no activity (28).

For assay [2], the system named is A3 DNA deaminase (A3A or A3G). Briefly: fluorescence-based DNA deamination assay, high-throughput screening. The conditions noted are these: 10 μM library compound, inhibitors inhibit the reaction by 50% or more and reproduce in dose response. Type of assay: biochemical, human. From the text: MN132, MN137, MN141, and MN152 are a few exemplary molecules identified from high-throughput screening. To screen for inhibitors of A3A or A3G DNA cytosine deaminase activity, a previously described fluorescence-based assay has been modified, optimized, and miniaturized (FIG. 2A) (30). C-to-U by A3A or A3G creates a substrate uracil that is excised by UDG, and the resulting abasic site is attacked by hydroxide to release 6-FAM fluorescence from the TAMRA quench. Recombinant A3A- or A3G-myc-His purified from a HEK-293-based cell line is incubated with uracil DNA glycosylase (UDG), 10 μM library compound (or a DMSO control), and a cytosine-containing, single-stranded DNA substrate attached to a 5′ 6-FAM fluorescent tag and a 3′ TAMRA quench molecule. During a 2 hr incubation period, the A3 protein deaminates 5′-C-to-U and UDG excises the uracil to leave an abasic site. DNA cleavage by NaOH produces a fluorescent signal by releasing the 6-FAM fluorophore from the TAMRA quench. This assay is highly sensitive and reproducible (A3G Z score=0.86 and A3A Z score=0.88 on the University of Minnesota ITDD HTS platform). […]
Protocols were developed for purification of A3-myc-His proteins from HEK-293 cells. […] High (80-90%) purity is achieved routinely, and all proteins show robust activity in our fluorescence-based C-to-U deaminase assay as shown in FIGS. 4C and 4D.

For another assay, the target named is T1, A3A (Homo sapiens, UniProt P31941).
T1 construct: expressed in transfected cells; host or cells: HEK-293T
Put plainly: DNA deaminase assay in A3A-expressing HEK-293T cell extracts. Type of assay: biochemical. As to conditions: A3A-transfected HEK-293T total cell extracts, compared with recombinant protein, FIG. 5.

The subject of the next assay is primary human monocytes. Briefly: primary human monocytes nucleofected with a GFP expression vector. In kind it is cell-based. As to conditions: 3 days post-transfection, flow cytometry, versus DMSO (not detectably transfected), FIG. 7B. From the text: Primary human monocytes were purified by negative selection and nucleofected with a GFP expression vector. Since these cells naturally express A3A, transfection with A3A expression plasmids was not necessary. The pool of transfected cells was split into wells containing media plus vehicle control or MN132. A variety of different cell lines (lymphoid, liver, breast, brain, epithelial, and colorectal origins) and distinct primary white blood cell types (T, B, monocyte, neutrophil, etc.) can be used in these experiments to test the central hypothesis that the endogenous A3s constitute a general barrier to foreign DNA and genetic engineering.

Chain of E. Coli uracil-DNA glycosylase (P12295 whole entry): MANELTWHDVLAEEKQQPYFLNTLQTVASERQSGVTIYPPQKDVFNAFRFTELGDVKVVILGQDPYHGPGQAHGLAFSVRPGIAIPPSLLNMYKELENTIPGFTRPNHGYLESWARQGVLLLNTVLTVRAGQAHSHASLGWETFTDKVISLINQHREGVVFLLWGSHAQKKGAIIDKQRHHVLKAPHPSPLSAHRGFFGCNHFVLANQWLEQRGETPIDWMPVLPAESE
T1 sequence (P31941 whole entry): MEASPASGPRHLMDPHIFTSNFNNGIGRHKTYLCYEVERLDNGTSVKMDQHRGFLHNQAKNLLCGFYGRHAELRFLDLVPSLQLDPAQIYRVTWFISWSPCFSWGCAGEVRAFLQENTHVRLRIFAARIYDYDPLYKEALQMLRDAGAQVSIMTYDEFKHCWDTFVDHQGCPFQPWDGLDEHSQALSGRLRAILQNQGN

`O=C(O)C1=CC(=C(c2ccc(O)c(C(=O)O)c2)c2ccc(O)c(C(=O)O)c2)C=CC1=O` [ATA]: the “block of UDG” value in assay [1] is on record as “lone exception”.
Turning to `Cc1ccc(-c2cc(C(=O)Nc3nnc(-c4ccncc4)s3)c3ccccc3n2)o1` [MN132, 2-(5-methylfuran-2-yl)-N-(5-(pyridin-4-yl)-1,3,4-thiadiazol-2-yl)quinoline-4-carboxamide], the “inhibition of A3 DNA deaminase activity in vitro” value in assay [2] was “inhibit A3 DNA deaminase activity in vitro”. Further, at A3A, the “IC50 values in cell extracts” value was “higher”. Moreover, the “percentage of cells expressing GFP” value in the assay with primary human monocytes is reported as “dose dependent increases”.
